Assay results published in PubChem BioAssay AID248 (DTP/NCI, 2004).
Toxic doses and inconclusive results are not listed. Rule as the data show it: active = T/C of 150% or more; inactive = T/C below 125%.

Test system: L1210 leukemia ip in BDF1 mice, survival T/C
Assay: NCI In Vivo Anticancer Drug Screen. Data for tumor model L1210 Leukemia (intraperitoneal) in B6D2F1 (BDF1) mice
Conditions: endpoint: mean survival time, higher = longer survival
Procedure, shortened: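 Each compound was tested against a transplantable tumor grown in mice. The endpoint was survival, with treated animals benchmarked against vehicle controls as a simple ratio.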

[1] = dose: 100.0 mg/kg/injection, schedule: Q04DX002 (ip), vehicle: saline
[2] = dose: 100.0 mg/kg/injection, schedule: Q01DX009 (ip), vehicle: Klucel (hydroxypropylcellulose) (HPC)
[3] = dose: 100.0 mg/kg/injection, schedule: Q04DX003 (ip), vehicle: Klucel (hydroxypropylcellulose) (HPC)
[4] = dose: 200.0 mg/kg/injection, schedule: Q01DX009 (ip), vehicle: Klucel (hydroxypropylcellulose) (HPC)
[5] = dose: 200.0 mg/kg/injection, schedule: Q04DX003 (ip), vehicle: Klucel (hydroxypropylcellulose) (HPC)
[6] = dose: 400.0 mg/kg/injection, schedule: Q01DX009 (ip), vehicle: Klucel (hydroxypropylcellulose) (HPC)
[7] = dose: 400.0 mg/kg/injection, schedule: Q04DX003 (ip), vehicle: Klucel (hydroxypropylcellulose) (HPC)
[8] = dose: 100.0 mg/kg/injection, schedule: Q01DX001 (ip), vehicle: Klucel (hydroxypropylcellulose) (HPC)
[9] = dose: 200.0 mg/kg/injection, schedule: Q01DX001 (ip), vehicle: Klucel (hydroxypropylcellulose) (HPC)
[10] = dose: 400.0 mg/kg/injection, schedule: Q01DX001 (ip), vehicle: Klucel (hydroxypropylcellulose) (HPC)
[11] = dose: 100.0 mg/kg/injection, schedule: Q04DX003 (ip), vehicle: saline with Tween-80
[12] = dose: 200.0 mg/kg/injection, schedule: Q04DX003 (ip), vehicle: saline with Tween-80
[13] = dose: 100.0 mg/kg/injection, schedule: Q01DX001 (ip), vehicle: saline
[14] = dose: 200.0 mg/kg/injection, schedule: Q01DX001 (ip), vehicle: saline
[15] = dose: 400.0 mg/kg/injection, schedule: Q01DX001 (ip), vehicle: saline
[16] = dose: 6.25 mg/kg/injection, schedule: Q01DX009 (ip), vehicle: saline
[17] = dose: 12.5 mg/kg/injection, schedule: Q01DX009 (ip), vehicle: saline
[18] = dose: 25.0 mg/kg/injection, schedule: Q01DX009 (ip), vehicle: saline
[19] = dose: 100.0 mg/kg/injection, schedule: Q04DX003 (ip), vehicle: saline

Measured: T/C

NC(CCCC(N)C(=O)CCl)C(=O)O (configuration not stated)
inactive: dose: 25.0 mg/kg/injection, schedule: Q04DX002 (ip), vehicle: saline 114 % of control | dose: 50.0 mg/kg/injection, schedule: Q04DX002 (ip), vehicle: saline 104 % of control | [1] 107 % of control

O=c1[nH]c2cc(Cl)cc([N+](=O)[O-])c2c2c(Cl)cc(Cl)cc12
inactive: [2] 100 % of control | [3] 95 % of control | [4] 101 % of control | [5] 97 % of control | [6] 104 % of control | [7] 92 % of control

Cc1ccc(-n2c(=O)c(N=Nc3ccc(Cl)cc3)c(O)n(-c3ccccc3C)c2=S)cc1
inactive: [8] 97 % of control | [9] 87 % of control | [10] 92 % of control

FC(F)(F)c1cccc(N2N=NC3CC/C(=C\c4ccccc4)C32N2CCOCC2)c1 (configuration not stated)
inactive: dose: 100.0 mg/kg/injection, schedule: Q04DX002 (ip), vehicle: Klucel (hydroxypropylcellulose) (HPC) 97 % of control | dose: 200.0 mg/kg/injection, schedule: Q04DX002 (ip), vehicle: Klucel (hydroxypropylcellulose) (HPC) 90 % of control | dose: 400.0 mg/kg/injection, schedule: Q04DX002 (ip), vehicle: Klucel (hydroxypropylcellulose) (HPC) 93 % of control

O=C1c2ccccc2Cc2cscc21
inactive: [11] 91 % of control | [12] 91 % of control

CCN(CC)CCOCCN(CC)CC
inactive: dose: 75.0 mg/kg/injection, schedule: Q01DX001 (ip), vehicle: saline 98 % of control | dose: 150.0 mg/kg/injection, schedule: Q01DX001 (ip), vehicle: saline 102 % of control

O=c1oc(-c2ccccc2NS(=O)(=O)c2ccccc2)nc2cc(Cl)ccc12
inactive: [2] 103 % of control | [4] 104 % of control | [6] 110 % of control

CCSc1ccc2c(cc1=O)C(NC(=O)NC)CCc1cc(OC)c(OC)c(OC)c1-2 (configuration not stated)
inactive: dose: 25.0 mg/kg/injection, schedule: Q01DX009 (ip), vehicle: Klucel (hydroxypropylcellulose) (HPC) 116 % of control | dose: 50.0 mg/kg/injection, schedule: Q01DX009 (ip), vehicle: Klucel (hydroxypropylcellulose) (HPC) 112 % of control | [2] 92 % of control

COC(=O)C(NC(C)=O)C(=O)OC
inactive: [2] 98 % of control | [3] 90 % of control | [4] 104 % of control | [5] 98 % of control | [6] 96 % of control | [7] 106 % of control

CCC(C)C1NC(=O)C(NC(=O)c2c3nc4c(C(=O)NC5C(=O)NC(C(C)CC)C(=O)N6CCCC6C(=O)N(C)CC(=O)N(C)C(C(C)C)C(=O)OC5C)cc(N)c(C)c4oc-3c(C)c(=O)c2N)C(C)OC(=O)C(C(C)C)N(C)C(=O)CN(C)C(=O)C2CCCN2C1=O (configuration not stated)
inactive: dose: 75.0 micrograms/kg/injection, schedule: Q01DX009 (ip), vehicle: saline + alcohol 119 % of control | dose: 100.0 micrograms/kg/injection, schedule: Q01DX009 (ip), vehicle: saline + alcohol 121 % of control | dose: 150.0 micrograms/kg/injection, schedule: Q01DX009 (ip), vehicle: saline + alcohol 124 % of control | dose: 300.0 micrograms/kg/injection, schedule: Q01DX009 (ip), vehicle: saline + alcohol 105 % of control | dose: 300.0 micrograms/kg/injection, schedule: Q04DX003 (ip), vehicle: saline + alcohol 122 % of control | dose: 400.0 micrograms/kg/injection, schedule: Q01DX009 (ip), vehicle: saline + alcohol 86 % of control

CCC/C=C(\C)CCCCCCCCC (tested in a mixture with another compound)
inactive: [11] 98 % of control | [12] 101 % of control | dose: 400.0 mg/kg/injection, schedule: Q04DX003 (ip), vehicle: saline with Tween-80 106 % of control

CCCC1COCC(CC)/C1=N\Nc1ccc([N+](=O)[O-])cc1[N+](=O)[O-] (configuration not stated)
inactive: [8] 91 % of control | [9] 94 % of control | [10] 91 % of control

Cc1cc(C)c(NC(=O)c2ccco2)cc1C
inactive: [2] 105 % of control | [4] 92 % of control | [6] 105 % of control

CC(=O)c1cc2c(cc1C)OCO2
inactive: [13] 103 % of control | [14] 97 % of control | [15] 101 % of control

CCCCNc1nnc(N)s1
inactive: dose: 100.0 mg/kg/injection, schedule: Q04DX002 (ip), vehicle: saline with Tween-80 98 % of control | dose: 200.0 mg/kg/injection, schedule: Q04DX002 (ip), vehicle: saline with Tween-80 98 % of control

CC1=CC(C)C(=O)N(C)C(C)=C1 (configuration not stated)
inactive: dose: 75.0 mg/kg/injection, schedule: Q01DX001 (ip), vehicle: carboxymethylcellulose (CMC) 97 % of control | dose: 150.0 mg/kg/injection, schedule: Q01DX001 (ip), vehicle: carboxymethylcellulose (CMC) 91 % of control | dose: 300.0 mg/kg/injection, schedule: Q01DX001 (ip), vehicle: carboxymethylcellulose (CMC) 92 % of control

CCOC(=O)/C=C(/Nc1ccc(OC)cc1[N+](=O)[O-])C(=O)OCC
inactive: [13] 95 % of control | [14] 95 % of control | [15] 104 % of control

CN(C)CC/C=C1/c2ccccc2COc2ccccc21
inactive: dose: 6.12 mg/kg/injection, schedule: Q01DX001 (ip), vehicle: water 111 % of control | [16] 103 % of control | dose: 12.5 mg/kg/injection, schedule: Q01DX001 (ip), vehicle: water 113 % of control | [17] 107 % of control | dose: 25.0 mg/kg/injection, schedule: Q01DX001 (ip), vehicle: water 103 % of control | [18] 101 % of control | dose: 25.0 mg/kg/injection, schedule: Q04DX003 (ip), vehicle: saline 109 % of control | dose: 50.0 mg/kg/injection, schedule: Q01DX009 (ip), vehicle: saline 113 % of control | dose: 50.0 mg/kg/injection, schedule: Q04DX003 (ip), vehicle: saline 101 % of control | [19] 93 % of control

CCN(CC)CCN(C)C
inactive: dose: 100.0 mg/kg/injection, schedule: Q01DX009 (ip), vehicle: saline 102 % of control | [19] 105 % of control | dose: 200.0 mg/kg/injection, schedule: Q01DX009 (ip), vehicle: saline 107 % of control | dose: 200.0 mg/kg/injection, schedule: Q04DX003 (ip), vehicle: saline 97 % of control | dose: 400.0 mg/kg/injection, schedule: Q04DX003 (ip), vehicle: saline 97 % of control

O=C(O)C(Br)CF (configuration not stated)
inactive: [1] 93 % of control | dose: 200.0 mg/kg/injection, schedule: Q04DX002 (ip), vehicle: saline 97 % of control | dose: 400.0 mg/kg/injection, schedule: Q04DX002 (ip), vehicle: saline 87 % of control

Oc1ccc(Cl)cc1/C=N\NC(=S)Nc1ccc2cn[nH]c2c1
inactive: dose: 50.0 mg/kg/injection, schedule: Q01DX001 (ip), vehicle: carboxymethylcellulose (CMC) 102 % of control | dose: 100.0 mg/kg/injection, schedule: Q01DX001 (ip), vehicle: carboxymethylcellulose (CMC) 86 % of control | dose: 200.0 mg/kg/injection, schedule: Q01DX001 (ip), vehicle: carboxymethylcellulose (CMC) 102 % of control

CCOC(=O)C(C(C)=O)C(c1ccc([N+](=O)[O-])cc1)C(C(C)=O)C(=O)OCC (configuration not stated)
inactive: dose: 3.12 mg/kg/injection, schedule: Q01DX009 (ip), vehicle: saline 86 % of control | [16] 88 % of control | [17] 89 % of control | [18] 86 % of control
